# Laboratory results published in patent publication US20060069132A1, “Azolecarboxamide herbicides” (priority 2004, published 2006).
# What was measured:
# [1] = test system: Surinam grass; experiment: Test C pre-/postemergence herbicide test; type: in vivo, Urochloa decumbens; settings: Urochloa decumbens, pre-emergence, 312 h, read-out: Plant response rating, Surinam Grass
# Outline: (§1)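 Visual injury scores run from 0 (no effect) to 100 (complete control), assessed relative to untreated controls 12 to 14 days after treatment in the greenhouse. Chemicals were formulated in a non-phytotoxic solvent mixture with surfactant and applied to soil after planting or to emerged plants at the 1- to 4-leaf stage.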
# [2] = test system: corn; experiment: Test C pre-/postemergence herbicide test; type: in vivo, Zea mays; settings: Zea mays, pre-emergence, 312 h
# Outline: as §1
# [3] = test system: giant foxtail; experiment: Test C pre-/postemergence herbicide test; type: in vivo, Setaria faberi; settings: Setaria faberi, pre-emergence, 312 h, read-out: Plant response rating, Foxtail, Giant
# Outline: as §1
# [4] = test system: johnsongrass; experiment: Test C pre-/postemergence herbicide test; type: in vivo, Sorghum halepense; settings: Sorghum halepense, pre-emergence, read-out: Plant response rating, Johnsongrass
# Outline: as §1
# [5] = test system: lambsquarters; experiment: Test C pre-/postemergence herbicide test; type: in vivo, Chenopodium album; settings: Chenopodium album, pre-emergence, read-out: Plant response rating, Lambsquarters
# Outline: as §1
# [6] = test system: morningglory; experiment: Test C pre-/postemergence herbicide test; type: in vivo, Ipomoea coccinea; settings: Ipomoea, pre-emergence, read-out: Plant response rating, Morningglory
# Outline: as §1
# [7] = test system: eastern black nightshade; experiment: Test C pre-/postemergence herbicide test; type: in vivo, Solanum ptycanthum; settings: pre-emergence, read-out: Plant response rating, Nightshade
# Outline: as §1
# [8] = test system: yellow nutsedge; experiment: Test C pre-/postemergence herbicide test; type: in vivo, Cyperus esculentus; settings: Cyperus, pre-emergence, read-out: Plant response rating, Nutsedge, Yellow
# Outline: as §1
# [9] = test system: common ragweed; experiment: Test C pre-/postemergence herbicide test; type: in vivo, Ambrosia elatior; settings: Ambrosia artemisiifolia, pre-emergence, read-out: Plant response rating, Ragweed
# Outline: as §1
# [10] = test system: soybean; experiment: Test C pre-/postemergence herbicide test; type: in vivo, Glycine max; settings: Glycine max, pre-emergence, read-out: Plant response rating, Soybean
# Outline: as §1
# [11] = test system: smallflower umbrella sedge; experiment: Test C flooded paddy test; type: in vivo, Cyperus difformis; settings: Cyperus difformis
# [12] = test system: ducksalad; experiment: Test C flooded paddy test; type: in vivo, Heteranthera limosa; settings: Heteranthera limosa
# [13] = test system: barnyardgrass; experiment: Test C flooded paddy test; type: in vivo, Echinochloa crus-galli; settings: Echinochloa crus-galli
# Outline: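 Plants were grown to the 1- to 4-leaf stage (2–18 cm) and then treated postemergence, or grown to the 2-leaf stage for the flooded paddy test. They were held in a greenhouse for 12 to 14 days and then scored by eye against controls, where 0 is no effect and 100 is complete control.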
# [14] = 62 g ai/ha, preemergence, scale 0 to 100
# [15] = 500 g ai/ha, scale 0 to 100 (0 no effect, 100 complete control), visual, 12 to 14 days
# [16] = 125 g ai/ha, scale 0 (no effect) to 100 (complete control), visual, 12 to 14 days
smiles,measurement,setting,value
"CCN1N=C(C(C)(C)C)CC1C(=O)Nc1cc(C(=O)N(C)C)ccc1F (stereo not shown) [Compound 268, N-[5-[(dimethylamino)carbonyl]-2-fluorophenyl]-3-(1,1-dimethylethyl)-1-ethyl-4,5-dihydro-1H-pyrazole-5-carboxamide]",pest or weed control at 62 g/ha,[1]; [14],70%
same,pest or weed control at 250 g/ha,"[1]; 250 g ai/ha, scale 0-100",95%
same,pest or weed control at 500 g/ha,[1]; [15],100%
same,"Corn plant response rating (crop injury, 0 = no effect, 100 = complete kill) at 62 g/ha",[2]; [14],10%
same,"Corn plant response rating (crop injury, 0 = no effect, 100 = complete kill) at 125 g/ha",[2]; [16],45%
same,"Corn plant response rating (crop injury, 0 = no effect, 100 = complete kill) at 250 g/ha","[2]; 250 g ai/ha, scale 0-100",60%
same,"Corn plant response rating (crop injury, 0 = no effect, 100 = complete kill) at 500 g/ha",[2]; [15],70%
same,pest or weed control at 62 g/ha,[3]; [14],80%
same,pest or weed control at 125 g/ha,[3]; [16],95%
same,pest or weed control at 250 g/ha,"[3]; 250 g ai/ha, scale 0-100",95%
same,pest or weed control at 500 g/ha,[3]; [15],100%
same,pest or weed control at 62 g/ha,[4]; [14],70%
same,pest or weed control at 125 g/ha,[4]; [16],90%
same,pest or weed control at 250 g/ha,"[4]; 250 g ai/ha, scale 0-100",100%
same,pest or weed control at 500 g/ha,[4]; [15],100%
same,pest or weed control at 62 g/ha,[5]; [14],100%
same,pest or weed control at 125 g/ha,[5]; [16],100%
same,pest or weed control at 250 g/ha,"[5]; 250 g ai/ha, scale 0-100",100%
same,pest or weed control at 500 g/ha,[5]; [15],100%
same,pest or weed control at 62 g/ha,[6]; [14],0%
same,pest or weed control at 125 g/ha,[6]; [16],0%
same,pest or weed control at 250 g/ha,"[6]; 250 g ai/ha, scale 0-100",5%
same,pest or weed control at 500 g/ha,[6]; [15],5%
same,pest or weed control at 62 g/ha,[7]; [14],100%
same,pest or weed control at 125 g/ha,[7]; [16],100%
same,pest or weed control at 250 g/ha,"[7]; 250 g ai/ha, scale 0-100",100%
same,pest or weed control at 500 g/ha,[7]; [15],100%
same,pest or weed control at 62 g/ha,[8]; [14],30%
same,pest or weed control at 125 g/ha,[8]; [16],50%
same,pest or weed control at 250 g/ha,"[8]; 250 g ai/ha, scale 0-100",60%
same,pest or weed control at 500 g/ha,[8]; [15],70%
same,pest or weed control at 62 g/ha,[9]; [14],70%
same,pest or weed control at 250 g/ha,"[9]; 250 g ai/ha, scale 0-100",100%
same,pest or weed control at 500 g/ha,[9]; [15],100%
same,plant injury at 62 g/ha,[10]; [14],60%
same,plant injury at 250 g/ha,"[10]; 250 g ai/ha, scale 0-100",90%
same,plant injury at 500 g/ha,[10]; [15],95%
same,pest or weed control at 62 g/ha,"[11]; 62 g ai/ha, scale 0 to 100, read-out: Sedge, Umbrella plant response rating",55%
same,pest or weed control at 125 g/ha,"[11]; 125 g ai/ha, scale 0 to 100 (0 no effect, 100 complete control), read-out: Sedge, Umbrella plant response rating",70%
same,pest or weed control at 250 g/ha,"[11]; 250 g ai/ha, scale of 0 to 100, 0 is no effect, 100 is complete control, read-out: Sedge, Umbrella plant response rating",80%
same,pest or weed control at 500 g/ha,"[11]; 500 g ai/ha, visual rating after 12 to 14 days, scale 0 to 100 (0 no effect, 100 complete control), read-out: Plant response rating, Sedge, Umbrella",95%
same,pest or weed control at 62 g/ha,"[12]; 62 g ai/ha, scale 0 to 100, read-out: Ducksalad plant response rating",60%
same,pest or weed control at 125 g/ha,"[12]; 125 g ai/ha, scale 0 to 100 (0 no effect, 100 complete control), read-out: Ducksalad plant response rating",70%
same,pest or weed control at 250 g/ha,"[12]; 250 g ai/ha, scale of 0 to 100, 0 is no effect, 100 is complete control, read-out: Ducksalad plant response rating",85%
same,pest or weed control at 500 g/ha,"[12]; 500 g ai/ha, visual rating after 12 to 14 days, scale 0 to 100 (0 no effect, 100 complete control), read-out: Plant response rating, Ducksalad",90%
same,pest or weed control at 62 g/ha,"[13]; 62 g ai/ha, scale 0 to 100 (0 no effect, 100 complete control), read-out: Barnyardgrass plant response rating",65%
same,pest or weed control at 125 g/ha,"[13]; 125 g ai/ha, scale 0 to 100 (0 no effect, 100 complete control), read-out: Barnyardgrass plant response rating",90%
same,pest or weed control at 250 g/ha,"[13]; 250 g ai/ha, scale of 0 to 100, 0 is no effect, 100 is complete control, read-out: Barnyardgrass plant response rating",95%
same,pest or weed control at 500 g/ha,"[13]; 500 g ai/ha, visual rating after 12 to 14 days, scale 0 to 100 (0 no effect, 100 complete control), read-out: Plant response rating, Barnyardgrass",95%
